Like-named read-outs stand apart in the source and are kept apart here.
Assays:
[1] = Distribution coefficient (logD7.4), shake-flask n-octanol/buffered water; assay type: physicochemical; conditions: n-octanol/phosphate buffered saline pH 7.4, shake-flask
Description: The n-octanol-water coefficients of the phosphane derivatives were determined as previously reported using a shake-flask method. Briefly: Buffered-saline distilled water (100 mL, phosphate buffer [PO4^3−] = 10 mM, [NaCl] = 0.15 M, pH 7.4) and n-octanol (100 mL) were shaken together for 72 h to allow saturation of both phases. 1 mg of the complexes was dissolved in 5 mL of the aqueous phase and 5 mL of the organic phase were added, mixing for 10 min. The concentration of the complexes in the organic and aqueous phases were then determined using UV absorbance spectroscopy. LogD7.4 = log{[compound(organic phase)]/[compound(aqueous phase)]}.
The lipophilicity can be measured by the partition coefficient water/n-octanol, logD, by experimental procedures such as the shake flask method, which affords the distribution of the drug between an equal amount of n-octanol and water (or buffered aqueous solution).

Caco-2/TC7 cells = assay: MTT cytotoxicity / antiproliferative assay on Caco-2/TC7 cells; assay type: cell-based, human
Description: Human fibroblast cells were kindly provided by Dr. Julio Montoya (Unidad de Bioquímica, Facultad de Veterinaria, Universidad de Zaragoza, Spain). Caco-2 cells (passages 40–70) and fibroblasts (passages 10–30) were maintained in a humidified atmosphere of 5% CO2 at 37 °C. Cells were grown in Dulbecco’s Modified Eagles medium (DMEM) (Gibco Invitrogen, Paisley, UK) supplemented with 20% fetal bovine serum (FBS), 1% non-essential amino acids, 1% penicillin (1000 U/mL), 1% streptomycin (1000 μg/mL) and 1% amphotericin (250 U/mL). […] Caco-2 cells were sub-cultured on 25 cm^2 plastic flasks at a density of 1.2 × 10^4 cells/cm^2, while fibroblasts were sub-cultured on 75 cm^2 plastic flasks at a density of 1 × 10^4 cells/cm^2. Culture medium was replaced every 2 days.
(§1) Gold complex was diluted in dimethyl sulfoxide (DMSO) to a stock solution at 20 mM and then re-diluted to a working solution at 2.5 mM before diluting it in cell culture medium to treat cells at desired concentrations.
The influence of hyperthermia was studied by incubating cells at 40 °C for 1 h immediately after treating them with the gold complexes.
For cytotoxicity screening assays, Caco-2 cells were seeded in 96-well plates at a density of 4 × 10^3 cells/well. Culture medium was replaced with medium containing drug panel 24 h post-seeding and cells were incubated for 72 h. In fibroblasts, culture medium containing metal gold complexes was added 10 days post-seeding. Antiproliferative effect was measured with MTT assay as previously described by Mármol et al.. […] To determine the selectivity index (SI) the IC50 value in fibroblasts was divided by IC50 value in Caco-2, obtaining a ratio cancerous/normal cells toxicity.

Human fibroblast cells = assay: MTT cytotoxicity assay on fibroblasts; assay type: cell-based; conditions: for fibroblasts viability when treated at the IC50 value in Caco-2: 3a 2.5 µM, 3b 5.1 µM, 2a 12.3 µM, 2b 10.5 µM; for IC50: MTT, mean ± SE
Description: Human Caco-2 cell line (TC7 clone) was kindly provided by Dr. Edith Brot-Laroche (Université Pierre et Marie Curie-Paris 6, UMR S 872, Les Cordeliers, France). Human fibroblast cells were kindly provided by Dr. Julio Montoya (Unidad de Bioquímica, Facultad de Veterinaria, Universidad de Zaragoza, Spain). Caco-2 cells (passages 40–70) and fibroblasts (passages 10–30) were maintained in a humidified atmosphere of 5% CO2 at 37 °C. Cells were grown in Dulbecco’s Modified Eagles medium (DMEM) (Gibco Invitrogen, Paisley, UK) supplemented with 20% fetal bovine serum (FBS), 1% non-essential amino acids, 1% penicillin (1000 U/mL), 1% streptomycin (1000 μg/mL) and 1% amphotericin (250 U/mL). The cells were passaged enzymatically with 0.25% trypsin-1 mM EDTA. Caco-2 cells were sub-cultured on 25 cm^2 plastic flasks at a density of 1.2 × 10^4 cells/cm^2, while fibroblasts were sub-cultured on 75 cm^2 plastic flasks at a density of 1 × 10^4 cells/cm^2. Culture medium was replaced every 2 days.
as §1
For cytotoxicity screening assays, Caco-2 cells were seeded in 96-well plates at a density of 4 × 10^3 cells/well. Culture medium was replaced with medium containing drug panel 24 h post-seeding and cells were incubated for 72 h. In fibroblasts, culture medium containing metal gold complexes was added 10 days post-seeding. Antiproliferative effect was measured with MTT assay as previously described by Mármol et al.. Absorbance at 540/620 nm was measured with SPECTROstar Nano (BMG Labtech). To determine the selectivity index (SI) the IC50 value in fibroblasts was divided by IC50 value in Caco-2, obtaining a ratio cancerous/normal cells toxicity.

Recombinant Human TrxR1 = biological target: T1, Recombinant Human TrxR1 (Homo sapiens, UniProt Q16881); assay: Thioredoxin reductase 1 (TrxR1) activity assay; assay type: biochemical; conditions: auranofin 25 µM; 3a and 3b at IC50 concentrations
T1 construct: purchased Sigma-Aldrich SRP6081
T1 sequence (Q16881 151-649 limits assumed): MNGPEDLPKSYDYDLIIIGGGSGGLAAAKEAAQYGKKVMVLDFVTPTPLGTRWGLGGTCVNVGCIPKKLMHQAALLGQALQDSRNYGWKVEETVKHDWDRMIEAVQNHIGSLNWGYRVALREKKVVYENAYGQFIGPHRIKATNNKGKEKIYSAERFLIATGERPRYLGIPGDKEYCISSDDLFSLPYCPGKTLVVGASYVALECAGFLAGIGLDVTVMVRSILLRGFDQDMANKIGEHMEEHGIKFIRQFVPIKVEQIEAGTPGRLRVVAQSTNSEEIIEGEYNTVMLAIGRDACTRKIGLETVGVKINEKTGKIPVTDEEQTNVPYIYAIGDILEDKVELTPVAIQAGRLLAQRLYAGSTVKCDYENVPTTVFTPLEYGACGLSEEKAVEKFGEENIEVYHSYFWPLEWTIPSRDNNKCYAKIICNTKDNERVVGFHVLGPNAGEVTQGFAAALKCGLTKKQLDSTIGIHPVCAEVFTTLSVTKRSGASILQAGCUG
Description: Recombinant Human TrxR1 (Sigma-Aldrich SRP6081, St. Louis, MO, USA) was incubated in a 96 well plate with different concentration of Au complex previously dissolved in 25 μL of PBS at pH 7.4. The cell solution was incubated in shake motion for 5 min at 37 °C. After incubation time, procedure in Thioredoxin Reductase Assay Kit (Sigma-Aldrich CS0170, St. Louis, MO, USA) was followed. Finally, reaction was started by adding 6 μL DNTB and absorbance at 405 nm was recorded every 30 s for 22 min as a measure of Thioredoxin Reductase Activity.

[2] = 72 h, MTT, 37 °C, mean ± SE, read-out: IC50 Caco-2/TC7 37 °C
[3] = read-out: IC50 Caco-2/TC7 40 °C, 72 h, MTT, 1 h at 40 °C immediately after treatment (hyperthermia), mean ± SE
[4] = Homo sapiens, Caco2/TC7, read-out: IC50 Caco-2/TC7 40 °C

## FC(F)(F)C(F)(F)C(F)(F)C(F)(F)C(F)(F)C(F)(F)CC[N+]12CN3CN(C1)C[PH]([Au][Cl])(C3)C2.O=S(=O)([O-])C(F)(F)F [Complex 1b, [AuCl(PTA-CH2CH2(CF2)5CF3)]TfO]
[1]
  logD7.4: 0.63
Caco-2/TC7 cells; [2]
  IC50: 5.98 ± 1.8 µM
Caco-2/TC7 cells; [3]
  IC50: 4.46 ± 0.79 µM

## CCCCCCCC[N+]12CN3CN(C1)C[P+]([Au-2]([Cl])[P+]14CN5CN(C[N+](CCCCCCCC)(C5)C1)C4)(C3)C2.[I-].[I-] [Complex 2a, [AuCl(PTA-CH2(CH2)6CH3)2]I2]
[1]
  logD7.4: −0.12
Caco-2/TC7 cells; [2]
  IC50: 12.3 ± 1.18 µM
Caco-2/TC7 cells; [3]
  IC50: 10.4 ± 0.51 µM
Human fibroblast cells
  fibroblasts viability when treated at the IC50 value in Caco-2: nearly two-fold reduction in the viability of fibroblasts
  IC50: 13.5 ± 0.97 µM
Human fibroblast cells; IC50 fibroblasts/IC50 Caco-2
  Selectivity Index (SI): 1.09

## FC(F)(F)C(F)(F)C(F)(F)C(F)(F)C(F)(F)C(F)(F)CC[N+]12CN3CN(C1)C[P+]([Au-2]([Cl])[P+]14CN5CN(C[N+](CCC(F)(F)C(F)(F)C(F)(F)C(F)(F)C(F)(F)C(F)(F)F)(C5)C1)C4)(C3)C2.O=S(=O)([O-])C(F)(F)F.O=S(=O)([O-])C(F)(F)F [Complex 2b, [AuCl(PTA-CH2CH2(CF2)5CF3)2](TfO)2]
[1]
  logD7.4: 0.82
Caco-2/TC7 cells; [2]
  IC50: 10.7 ± 0.6 µM
Caco-2/TC7 cells; [3]
  IC50: 9 ± 0.39 µM
Human fibroblast cells
  fibroblasts viability when treated at the IC50 value in Caco-2: nearly two-fold reduction in the viability of fibroblasts
  IC50: 11.6 ± 1.05 µM

## CCCCCCCC[N+]12CN3CN(CP(C3)C1)C2 [La, [PTA-CH2(CH2)6CH3]I]
Caco-2/TC7 cells
  IC50: 49.32 ± 0.02 µM
Caco-2/TC7 cells; [4]
  IC50: 47.1 ± 0.92 µM

## FC(F)(F)C(F)(F)C(F)(F)C(F)(F)C(F)(F)C(F)(F)CC[N+]12CN3CN(CP(C3)C1)C2 [Lb, [PTA-CH2CH2(CF2)5CF3]TfO]
Caco-2/TC7 cells
  IC50: 27.2 ± 7.56 µM
Caco-2/TC7 cells; [4]
  IC50: 24 ± 6.6 µM

## CC(=O)OC[C@H]1O[C@@H]([S-])[C@H](OC(C)=O)[C@@H](OC(C)=O)[C@@H]1OC(C)=O.CCP(CC)CC.[Au+] [auranofin, reference compound]
Recombinant Human TrxR1
  TrxR1 activity related to control: Inhibitory effect

— publication PMC8698759, “Gold(I) Complexes Bearing Alkylated 1,3,5-Triaza-7-phosphaadamantane Ligands as Thermoresponsive Anticancer Agents in Human Colon Cells” (Biomedicines, 2021)
